Experimental data from US20080020421A1, “METHODS OF SCREENING AGENTS FOR CYTOTOXIC AND ANTIMICROBIAL ACTIVITY” (priority 2006, published 2008).

Legend:
[1] = test system: HeLa-GFP cells; test: Fluorescent microscopy cytotoxicity assay (LD50 determination, FIG. 2); assay type: cell-based, human; conditions: for approximate LD50 in HeLa-GFP: various concentrations, cell counts under fluorescent microscopy, FIG. 2
Protocol: The concentration of the test compounds (μM) are shown within the figure. Horizontal bar indicates the 50% toxicity range. H2O2 (+control, 1 mM) was used as a positive control (+; 100% cytolysis) while cells treated with DMSO (1 μl; solvent for all quinones) was used as the negative (−) control.
Fluorescent microscopy cytotoxicity assays. HeLa-GFP cells were plated on 24-well plates and left overnight to adhere. Different dilutions of the quinones were then added to each well (indicated in the legend) using the same concentrations of the positive and negative controls as described in the previous assay. Cell counts were done under fluorescent microscopy to determine cytotoxicity. The status of the fluorescent GFP-nuclei and the typical morphological characteristics of cells undergoing cell death were taken into account when differentiating between dying or viable cells as previously described (Montoya et al., 2004).

[2] = test system: HeLa-GFP cells; test: HeLa-GFP fluorometric cytotoxicity assay; conditions: for Percent-GFP-fluorescence after incubation with test compounds, HeLa-GFP (2 μg/ml) / Percent-GFP-fluorescence after incubation with test compounds, HeLa-GFP (20 μg/ml): 18 h incubation, relative to untreated (DMSO) cells; for toxicity to HeLa-GFP cells (in words): loss of GFP signal, Table 1 screen
Protocol: Cell culture. HeLa-GFP cells were cultured in DMEM media supplemented with 10% heat-inactivated newborn calf serum as previously described (Montoya et al., 2004). Stock cultures were prewashed twice with PBS before the treatment of trypsin for cell resuspension and subsequently re-plated at the concentration of 4,000 cells/well.
HeLa-GFP fluorometric cytotoxicity assay. All cell lines were seeded in clear-bottomed 96-well assay plates (3603, Costar, Corning Inc., Corning, N.Y.) in order to minimized background fluorescence. HeLa cells were grown in a total volume of 0.2 ml of medium and incubated overnight for proper cell attachment. The quinone compounds were then added to each well (in triplicate) and then incubated for a period of 18 hr. For the determination of fluorescence, the assay plates were then read using the Fluoroskan Ascent F1 fluorometer (Thermo Electron Corp.) set at the excitation and emission parameters of 485 and 518 nm, respectively. Since the HeLa-GFP cell line is adherent, the fluorometer was set to read from the bottom of the plate for closer proximity to the cells. Before the readings were performed, all supernatant media was removed to avoid any background interference and thus enhancing the sensitivity of the optical readings. For calibration purposes, three untreated control wells were used to determine the maximum level of fluorescence (100%). […] As a cytolysis control (complete loss of fluorescence), three wells containing cells were exposed to 0.2 ml of deionized water. These controls were then used to calculate the percent loss of GFP signal after compound exposure as determined by comparison with control wells containing cells that were not exposed to the chemical agent (see data analysis below).
Data analysis. All compounds, including controls, were screened in triplicate. The average of the three wells that were used for the removal of the background fluorescence (wells containing water for the HeLa-GFP assays and wells containing media alone for bacteria) was subtracted from each individual well. The mean of these triplicate values for each compound was then obtained. These mean values were then divided by the average obtained for maximum fluorescence (cells not treated with compound) and then multiplied by 100 to obtain the percentage values as shown in Table 1.

[3] = test system: E. coli-GFP; test: Toxicity assay with GFP-expressing E. coli; conditions: for Percent-GFP-fluorescence after incubation with test compounds, E. coli-GFP (20 μg/ml): 10 h incubation, relative to untreated bacteria; for toxicity to E. coli (in words): loss of GFP signal, Table 1 screen
Protocol: (§1) E. coli-GFP cells were grown in LB broth media while the MAC104 M. avium strain was grown in 7H9-ADC media.
(§2) Toxicity assays with GFP-expressing bacteria. E. coli was transformed with a GFP-expression plasmid that also confers tetracycline resistance was kindly provided by Dr. David Schneider (Elrod-Erickson et al., 2000). […] Both bacterial strains were grown and selected based on antibiotic resistance and GFP expression. All toxicity assays were performed using the plates and fluorometric parameters described in the previous section. Bacterial cell suspensions were seeded in a final volume of 100 μl at an optical density of 0.05 and 0.25 at 650 nm, for E. coli-GFP and M. avium-GFP, respectively. After exposure to the test compounds, assay plates were incubated at 37° C. in a humid environment to prevent dehydration in the wells. Unlike the HeLa-GFP assays, reading were performed without removing the supernatants to avoid loss of cells. Several untreated wells containing bacteria and media were used to determine the maximum level of fluorescence. Several wells containing media alone (no bacteria) were included in each assay to remove background fluorescence.
(§3) Data analysis. All compounds, including controls, were screened in triplicate. The average of the three wells that were used for the removal of the background fluorescence (wells containing water for the HeLa-GFP assays and wells containing media alone for bacteria) was subtracted from each individual well. The mean of these triplicate values for each compound was then obtained.

[4] = test system: M. avium-GFP (strain MAC104); test: Toxicity assay with GFP-expressing M. avium; conditions: for Percent-GFP-fluorescence after incubation with test compounds, M. avium-GFP (20 μg/ml): 18 h incubation, relative to untreated bacteria; for toxicity to M. avium (in words): loss of GFP signal, Table 1 screen
Protocol: as §1, §2, §3

| Structure (SMILES) | cytolysis (positive control) ([1]; 1 mM, HeLa-GFP) | Percent-GFP-fluorescence after incubation with test compounds, HeLa-GFP (2 μg/ml) [2] | Percent-GFP-fluorescence after incubation with test compounds, HeLa-GFP (20 μg/ml) [2] | toxicity to HeLa-GFP cells (in words) [2] | toxicity to HeLa-GFP cells (in words) ([2]; listed as Plumbagin) | Percent-GFP-fluorescence after incubation with test compounds, E. coli-GFP (20 μg/ml) [3] | toxicity to E. coli (in words) [3] | toxicity to E. coli (in words) ([3]; listed as Plumbagin) | approximate LD50 in HeLa-GFP [1] | Percent-GFP-fluorescence after incubation with test compounds, M. avium-GFP (20 μg/ml) [4] | toxicity to M. avium (in words) [4] | toxicity to M. avium (in words) ([4]; listed as Plumbagin) |
| --- | --- | --- | --- | --- | --- | --- | --- | --- | --- | --- | --- | --- |
| OO [Compound H2O2, H2O2] | 100% | – | – | – | – | – | – | – | – | – | – | – |
| CC1=CC(=O)c2c(O)cccc2C1=O [Compound Q1, plumbagin, reference compound] | – | 13.0% | 9.0% | most toxic | third-most toxic to HeLa cells | 1.0% | most toxic | most toxic compound to E. coli | ~3.0 µM | 7.0% | most toxic | most toxic to M. avium |
| O=C1C=CC(=O)c2c(O)ccc(O)c21 [Compound Q3, naphthazarin, reference compound] | – | 0% | 4.0% | highly toxic | – | 41.0% | highly toxic | – | ~3.0 µM | 38.0% | highly toxic | – |
| CCOC(=O)c1ccc(C2=C(CNC(=O)OC(C)(C)C)C(=O)c3ccccc3C2=O)cc1 [Compound Q38] | – | 81.0% | 61.0% | – | – | 103.0% | – | – | – | 119.0% | – | – |
| CCOC(=O)c1ccccc1C1=C(CN(C(=O)OC(C)(C)C)C(=O)OC(C)(C)C)C(=O)c2ccccc2C1=O [Compound Q35] | – | 85.0% | 58.0% | – | – | 104.0% | – | – | – | 108.0% | – | – |
| CC1=CC(=O)c2ccccc2C1=O [Compound Q5, menadione, reference compound] | – | 13.0% | 22.0% | highly toxic | – | 58.0% | highly toxic | – | – | 69.0% | highly toxic | – |
| CCCCCC1=CC(=O)c2ccccc2C1=O [Compound Q10] | – | 84.0% | 52.0% | – | – | 110.0% | – | – | – | 81.0% | – | – |
